Blank lines part the entries; values can stand above or below the molecule they belong to. Calls of active or inactive are those of the source.
Experiments:
[1] = P. falciparum Dd2 growth inhibitors, dose response, SYBR Green, cherry-picked samples (AID 1159567); assay type: functional, cell-based
[2] = HepG2 cell cytotoxicity, dose response, cytotoxicity control, cherry-picked samples (AID 1159577); assay type: functional, cell-based
[3] = HepG2 cell cytotoxicity, dose response, cytotoxicity control, ATP luminescence, cherry-pick, set 6 (AID 1053125); assay type: functional, cell-based
[4] = human group III sPLA2 inhibitors, dose response, biochemical, QFRET, IC50 (AID 743457);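 also: green fluorescence rise as the enzyme cleaves BODIPY PC-A2 in liposomes; potency for inhibition of the enzyme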
[5] = target: Cytochrome P450 3A4 (Homo sapiens, UniProt P08684); details: Potency;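 also: confirmatory qHTS run detecting inhibitors and substrates of CYP3A4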
[6] = target: Cytochrome P450 2C9 (Homo sapiens, UniProt P11712); details: Potency
[7] = IGROV1 ovarian cancer cell cytotoxicity, dose response, PAX8 inhibitor project, plate reader, dry powder samples (AID 743043); assay type: functional, cell-based; details: IGROV-1
[8] = target: Paired box protein Pax-8 (Homo sapiens, UniProt Q06710); assay: inhibitors of PAX8-driven TPO luciferase reporter, dose response, RMG-I cells, cherry-pick (AID 687027); assay type: functional, cell-based;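 also: luciferase reporter driven by Pax8 target thyroperoxidase promoter measured by SteadyGlo luminescence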
[9] = target: Peroxisome proliferator-activated receptor gamma/Nuclear receptor coactivator 1 (Homo sapiens, UniProt P37231); assay type: functional;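 also: agonist potency as compounds enhance coactivator SRC-1 recruitment to PPARgamma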
[10] = target: Peroxisome proliferator-activated receptor gamma/Nuclear receptor coactivator 3 (Homo sapiens, UniProt P37231); assay type: functional;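 also: agonist potency for raising coactivator recruitment to the receptor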
[11] = target: Peroxisome proliferator-activated receptor gamma/Nuclear receptor coactivator 2 (Homo sapiens, UniProt P37231); assay type: functional;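 also: agonist potency for raising coactivator recruitment to the receptor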
[12] = target: T1, Polyadenylate-binding protein 1 (Homo sapiens, UniProt P11940); assay: PABP1 MLLE–PAM2 interaction inhibitors, dose response, miRNA deadenylation inhibitor project, biochemical, fluorescence polarization, Cy5-PAM2 peptide, secondary (AID 602260); assay type: functional; details: read-out: IC50_Mean
[13] = target: Disintegrin and metalloproteinase domain-containing protein 17 (Homo sapiens, UniProt P78536); assay: exosite inhibitors of ADAM17, dose response, biochemical (AID 743260)
[14] = target: T1, Polyadenylate-binding protein 1; assay: PABP1 MLLE–PAM2 binding inhibitor potency, dose response, biochemical, fluorescence polarization, FITC-PAM2 peptide (AID 602259); assay type: functional; details: read-out: IC50_Mean
[15] = target: T2, Estrogen receptor (Homo sapiens, UniProt P03372);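 also: potency for inhibiting coactivator peptide recruitment to the receptor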
T2 sequence (P03372 whole entry): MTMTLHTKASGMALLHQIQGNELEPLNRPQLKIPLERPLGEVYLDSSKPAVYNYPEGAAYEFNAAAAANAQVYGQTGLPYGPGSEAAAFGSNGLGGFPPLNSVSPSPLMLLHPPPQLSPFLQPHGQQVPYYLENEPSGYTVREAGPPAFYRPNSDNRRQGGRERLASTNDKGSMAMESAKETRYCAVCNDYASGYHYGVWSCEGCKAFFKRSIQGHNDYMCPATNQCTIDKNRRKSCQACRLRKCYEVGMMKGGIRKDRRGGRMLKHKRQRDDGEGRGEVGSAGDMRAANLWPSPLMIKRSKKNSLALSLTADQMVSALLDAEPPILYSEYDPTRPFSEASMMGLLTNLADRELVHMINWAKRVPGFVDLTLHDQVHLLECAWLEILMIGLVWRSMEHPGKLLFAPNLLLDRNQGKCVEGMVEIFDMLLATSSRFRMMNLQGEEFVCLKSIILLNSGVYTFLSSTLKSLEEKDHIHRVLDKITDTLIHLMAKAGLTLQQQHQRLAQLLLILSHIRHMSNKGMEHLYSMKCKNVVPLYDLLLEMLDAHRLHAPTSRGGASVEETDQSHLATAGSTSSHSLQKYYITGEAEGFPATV

[16] = target: Estrogen receptor beta (Homo sapiens, UniProt Q92731);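 also: recombinant ER-beta bound to coactivator SRC1 peptide in presence of estradiol agonist; inhibitors block coactivator peptide binding and lower the FRET signal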
Sequence of Estrogen receptor beta (Q92731 whole entry): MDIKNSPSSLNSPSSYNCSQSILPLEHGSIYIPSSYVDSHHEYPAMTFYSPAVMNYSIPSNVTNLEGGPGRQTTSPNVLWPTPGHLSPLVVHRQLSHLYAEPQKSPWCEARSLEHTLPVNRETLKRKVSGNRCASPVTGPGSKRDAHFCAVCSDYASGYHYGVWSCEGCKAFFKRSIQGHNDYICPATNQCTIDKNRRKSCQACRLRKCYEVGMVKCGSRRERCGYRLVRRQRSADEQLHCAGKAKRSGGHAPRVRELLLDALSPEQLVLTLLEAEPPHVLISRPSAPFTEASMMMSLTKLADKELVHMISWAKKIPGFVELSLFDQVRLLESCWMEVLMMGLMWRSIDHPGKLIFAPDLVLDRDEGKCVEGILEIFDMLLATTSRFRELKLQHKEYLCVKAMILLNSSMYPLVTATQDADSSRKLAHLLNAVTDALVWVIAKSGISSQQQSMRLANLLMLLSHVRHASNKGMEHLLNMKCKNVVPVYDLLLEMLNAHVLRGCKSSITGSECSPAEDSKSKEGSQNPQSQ

T1 sequence (P11940 whole entry, the tested form may be a part): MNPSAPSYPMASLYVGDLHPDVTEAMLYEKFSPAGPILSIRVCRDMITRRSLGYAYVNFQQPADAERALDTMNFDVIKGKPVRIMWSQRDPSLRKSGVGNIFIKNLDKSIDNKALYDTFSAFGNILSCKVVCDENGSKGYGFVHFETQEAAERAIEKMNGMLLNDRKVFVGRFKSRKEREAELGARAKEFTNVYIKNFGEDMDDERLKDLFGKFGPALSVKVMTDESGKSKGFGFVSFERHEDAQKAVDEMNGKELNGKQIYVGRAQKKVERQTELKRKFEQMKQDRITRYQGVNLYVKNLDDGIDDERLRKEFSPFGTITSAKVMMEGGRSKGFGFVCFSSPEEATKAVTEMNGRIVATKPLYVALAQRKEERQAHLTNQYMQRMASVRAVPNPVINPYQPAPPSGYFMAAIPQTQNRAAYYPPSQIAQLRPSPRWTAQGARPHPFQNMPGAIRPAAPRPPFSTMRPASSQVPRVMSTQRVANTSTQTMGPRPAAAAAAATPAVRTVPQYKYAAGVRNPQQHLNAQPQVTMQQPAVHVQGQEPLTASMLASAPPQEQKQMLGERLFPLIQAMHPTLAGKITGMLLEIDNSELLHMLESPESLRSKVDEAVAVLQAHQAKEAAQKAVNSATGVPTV
Sequence of Disintegrin and metalloproteinase domain-containing protein 17 (P78536 whole entry, the tested form may be a part): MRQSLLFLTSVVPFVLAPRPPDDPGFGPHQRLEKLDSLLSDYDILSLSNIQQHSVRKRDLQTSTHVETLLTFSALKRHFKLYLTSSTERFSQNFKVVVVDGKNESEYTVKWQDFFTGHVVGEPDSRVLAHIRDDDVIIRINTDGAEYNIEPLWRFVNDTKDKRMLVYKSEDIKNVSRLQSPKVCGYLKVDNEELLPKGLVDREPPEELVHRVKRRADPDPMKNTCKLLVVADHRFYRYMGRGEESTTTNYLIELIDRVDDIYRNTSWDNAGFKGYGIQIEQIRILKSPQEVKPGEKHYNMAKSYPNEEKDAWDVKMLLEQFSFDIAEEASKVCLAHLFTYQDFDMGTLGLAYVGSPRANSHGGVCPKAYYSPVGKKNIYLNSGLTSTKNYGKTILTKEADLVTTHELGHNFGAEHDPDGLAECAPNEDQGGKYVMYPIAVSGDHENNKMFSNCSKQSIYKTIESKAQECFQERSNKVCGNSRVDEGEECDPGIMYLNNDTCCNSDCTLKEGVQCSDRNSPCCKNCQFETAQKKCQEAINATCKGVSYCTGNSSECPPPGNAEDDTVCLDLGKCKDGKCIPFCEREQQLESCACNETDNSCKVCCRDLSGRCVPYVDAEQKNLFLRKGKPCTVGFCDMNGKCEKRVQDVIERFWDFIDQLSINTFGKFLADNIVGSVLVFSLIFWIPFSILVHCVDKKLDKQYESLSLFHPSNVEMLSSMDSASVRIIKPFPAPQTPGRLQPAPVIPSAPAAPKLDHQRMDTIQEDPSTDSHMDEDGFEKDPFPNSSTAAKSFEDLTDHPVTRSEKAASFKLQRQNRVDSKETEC
Sequence of Cytochrome P450 2C9 (P11712 whole entry): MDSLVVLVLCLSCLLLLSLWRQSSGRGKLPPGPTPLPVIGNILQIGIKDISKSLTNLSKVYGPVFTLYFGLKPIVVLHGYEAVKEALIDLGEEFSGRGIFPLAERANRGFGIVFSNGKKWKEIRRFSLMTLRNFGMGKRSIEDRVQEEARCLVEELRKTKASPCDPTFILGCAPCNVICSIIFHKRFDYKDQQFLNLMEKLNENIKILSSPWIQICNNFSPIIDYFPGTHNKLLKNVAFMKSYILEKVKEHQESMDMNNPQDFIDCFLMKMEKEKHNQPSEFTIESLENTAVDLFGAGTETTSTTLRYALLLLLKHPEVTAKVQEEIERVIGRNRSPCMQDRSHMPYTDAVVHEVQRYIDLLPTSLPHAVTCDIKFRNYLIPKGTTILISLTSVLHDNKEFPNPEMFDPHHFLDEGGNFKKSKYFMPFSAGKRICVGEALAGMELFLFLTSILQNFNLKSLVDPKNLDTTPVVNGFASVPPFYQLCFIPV
Sequence of Cytochrome P450 3A4 (P08684 whole entry): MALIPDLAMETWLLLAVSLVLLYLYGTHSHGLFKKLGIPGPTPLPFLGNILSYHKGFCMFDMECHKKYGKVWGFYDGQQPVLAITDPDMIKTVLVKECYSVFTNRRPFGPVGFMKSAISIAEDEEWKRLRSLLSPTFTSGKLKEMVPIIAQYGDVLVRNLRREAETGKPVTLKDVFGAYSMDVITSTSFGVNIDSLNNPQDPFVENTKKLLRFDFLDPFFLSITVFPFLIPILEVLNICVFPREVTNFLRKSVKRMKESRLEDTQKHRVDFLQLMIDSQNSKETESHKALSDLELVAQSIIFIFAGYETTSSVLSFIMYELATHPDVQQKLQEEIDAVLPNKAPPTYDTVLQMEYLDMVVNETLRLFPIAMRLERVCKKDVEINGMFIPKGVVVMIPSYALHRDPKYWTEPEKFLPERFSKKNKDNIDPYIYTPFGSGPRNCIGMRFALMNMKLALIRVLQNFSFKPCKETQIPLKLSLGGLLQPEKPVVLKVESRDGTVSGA
Sequence of Paired box protein Pax-8 (Q06710 whole entry): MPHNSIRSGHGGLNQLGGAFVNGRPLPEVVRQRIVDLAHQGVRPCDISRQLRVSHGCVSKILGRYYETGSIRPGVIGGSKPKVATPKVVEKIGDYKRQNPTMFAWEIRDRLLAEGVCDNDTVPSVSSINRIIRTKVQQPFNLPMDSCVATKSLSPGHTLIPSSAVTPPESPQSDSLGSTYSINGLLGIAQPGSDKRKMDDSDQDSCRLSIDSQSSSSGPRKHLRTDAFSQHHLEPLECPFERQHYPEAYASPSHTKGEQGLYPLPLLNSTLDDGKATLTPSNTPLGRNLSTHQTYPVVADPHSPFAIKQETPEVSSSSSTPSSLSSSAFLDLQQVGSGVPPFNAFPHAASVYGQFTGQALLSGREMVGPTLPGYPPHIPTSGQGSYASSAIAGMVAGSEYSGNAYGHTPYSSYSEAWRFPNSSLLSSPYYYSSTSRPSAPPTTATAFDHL

Compound: CCCC#Cc1ccc([C@H]2[C@@H](CO)N3CCCCN(C(=O)NC4CCCC4)C[C@H]23)cc1
AC50 [1]: 5.27 µM (active)
AC50 [2]: 12.6 µM (active)

Compound: COc1ccc(S(=O)(=O)N2CC[C@@H]3[C@@H](CO)Nc4ccc(-c5ccc(C#N)cc5)cc4[C@@H]32)cc1
AC50 [1]: 6.28 µM (active)
AC50 [2]: 3.16 µM (active)

Compound: CCOc1ccc(-n2c(SCC(=O)Nc3nccs3)nnc2-c2ccoc2C)cc1
AC50 [3]: > 52 µM (inactive)

Compound: Cc1cccc(NC(S)=NNC(=O)c2nn(C)cc2Cl)c1
IC50 [4]: > 122 µM (inactive)

Compound: CCCCCCCC1=CC2=CC(=O)C(C)(OC(C)=O)C(=O)C2=CN1CCc1ccccc1 (stereo not drawn)
AC50 [5]: 3.98 µM (inconclusive)
AC50 [6]: 6.31 µM (inconclusive)

Compound: C[C@@H]1CCCCO[C@H](CN(C)S(=O)(=O)c2cccs2)[C@@H](C)CN([C@@H](C)CO)C(=O)c2cc(NC(=O)Nc3ccc(C(F)(F)F)cc3)ccc2O1
AC50 [7]: 51.6 µM (active)
AC50 [8]: 3.48 µM (active)

Continued, values first:

EC50 [9]: > 79.4 µM (not active)
EC50 [10]: > 79.4 µM (not active)
EC50 [11]: > 79.4 µM (not active)
Compound: COc1ccc(NC(=O)COC(=O)c2cccc(S(=O)(=O)N(C)C)c2)cc1

IC50 [12]: > 66 µM (inactive)
IC50 [13]: 46.7 µM (inactive)
IC50 [14]: > 66 µM (inactive)
Compound: O=C(CC1SC(=O)N(c2ccccc2)C1=O)Nc1ccccc1 (stereo not drawn)

IC50 [15]: > 50 µM (not active)
IC50 [16]: > 50 µM (not active)
Compound: O=C(c1cc(-c2ccco2)on1)N1CCCc2ccccc21

From ChEMBL document CHEMBL1201862, “PubChem BioAssay data set” (2004)
